Type in all cases: cell-based
One experiment has as its system C. albicans (ATCC 64549). Description: Microbicidal microplate assay (viable counts), C. albicans. On the procedure:
The bacterial strains S. aureus 1800 (CCUG 1800), E. coli 06, and the yeast C. albicans (ATCC 64549) have been used in the microplate assay. All microorganisms were cultured in brain heart infusion medium (BHI) on a shaker over night at 37° C. A volume of the culture was transferred to a new tube with BHI and incubated for two more h on the shaker. The bacteria were harvested in the log phase, washed once and thereafter suspended in the broth used for the microplate assay. The suspension was adjusted spectrophotometrically and diluted to a concentration of approximately 4×10^6 cells per ml at 650 nm. Washed cells were suspended in 0.2% BP (pH 7.0) or BHI medium diluted 1/10 (0.34%, pH 6.7-6.9) (Difco, USA). The concentration of bacterial or fungal cells was spectrophotometrically adjusted. LF or peptide, serially diluted in BHIdil or BP by twofold steps (unless otherwise stated), were added in triplicate to the wells of a microtiterplate (200 ul per well). The bacterial or yeast cell solutions were added in 10 ul volumes to give a final concentration of approximately 2×10^5 cells per ml. The concentration of the stock solution was always checked by viable counts. The microplate was incubated at 37° C. in a humid chamber for 2 h unless otherwise stated. Five ul were taken from each well and added as a drop onto a blood agar plate and incubated over night at 37° C. In some experiments more thorough viable counts were performed and the killing was expressed as remaining colony forming units in relation to the inoculum. The lower limit for detection of microorganisms was 200 CFU/ml. The antimicrobial activity of human LF was analysed by the microbicidal assay described above. Different microbes such as C. albicans, E. coli and S. aureus were analysed with respect to their survival in lactate (not containing the inert gel base, which makes the gel unsuitable for the microbicidal assay) containing LF. […] LF was incubated together with various concentrations of lactate diluted in 0.2% bactopeptone and C. albicans for 2 h. Thereafter each solution was analysed for viable counts.

The next experiment deals with E. coli 06. Description: Microbicidal microplate-droplet assay, E. coli. Also noted: key to E. coli killing, growth grade in droplet assay: +++ means that the number of colony forming units (CFU) contained within 5 ul of a droplet formed a smooth layer of bacteria; ++ means that a “ruffled” area is seen; 0 means that no CFU were found in triplicate samples of 5 ul (>99.95 killed of the inoculum). On the procedure: (§1) The bacterial strains S. aureus 1800 (CCUG 1800), E. coli 06, and the yeast C. albicans (ATCC 64549) have been used in the microplate assay. All microorganisms were cultured in brain heart infusion medium (BHI) on a shaker over night at 37° C. A volume of the culture was transferred to a new tube with BHI and incubated for two more h on the shaker. The bacteria were harvested in the log phase, washed once and thereafter suspended in the broth used for the microplate assay. The suspension was adjusted spectrophotometrically and diluted to a concentration of approximately 4×10^6 cells per ml at 650 nm. Washed cells were suspended in 0.2% BP (pH 7.0) or BHI medium diluted 1/10 (0.34%, pH 6.7-6.9) (Difco, USA). The concentration of bacterial or fungal cells was spectrophotometrically adjusted. LF or peptide, serially diluted in BHIdil or BP by twofold steps (unless otherwise stated), were added in triplicate to the wells of a microtiterplate (200 ul per well). The bacterial or yeast cell solutions were added in 10 ul volumes to give a final concentration of approximately 2×10^5 cells per ml. The concentration of the stock solution was always checked by viable counts. The microplate was incubated at 37° C. in a humid chamber for 2 h unless otherwise stated. Five ul were taken from each well and added as a drop onto a blood agar plate and incubated over night at 37° C. In some experiments more thorough viable counts were performed and the killing was expressed as remaining colony forming units in relation to the inoculum. The lower limit for detection of microorganisms was 200 CFU/ml. The antimicrobial activity of human LF was analysed by the microbicidal assay described above. Different microbes such as C. albicans, E. coli and S. aureus were analysed with respect to their survival in lactate (not containing the inert gel base, which makes the gel unsuitable for the microbicidal assay) containing LF.

Experiment [1] has as its system S. aureus 1800 (CCUG 1800). Put plainly: Microbicidal microplate-droplet assay, S. aureus. On the procedure: as §1
A further experiment concerns L. jensenii. Description: Survival of L. jensenii in lactate with LF. The conditions noted are these: lactate 1%, 0.34% BHI, CO2, 3 h. As to the method:
L. gasseri and L. jensenii were cultured on chocolate-agar plates for 24 h in 5% CO2/95% air. They were thereafter harvested and added to BHI (0.34%). After washing the bacterial solutions were adjusted spectrophotometrically and diluted to 8×10^6 bacteria/ml.
Washed cells were suspended in 0.2% BP (pH 7.0) or BHI medium diluted 1/10 (0.34%, pH 6.7-6.9) (Difco, USA). The concentration of bacterial or fungal cells was spectrophotometrically adjusted. LF or peptide, serially diluted in BHIdil or BP by twofold steps (unless otherwise stated), were added in triplicate to the wells of a microtiterplate (200 ul per well). The bacterial or yeast cell solutions were added in 10 ul volumes to give a final concentration of approximately 2×10^5 cells per ml. The concentration of the stock solution was always checked by viable counts. The microplate was incubated at 37° C. in a humid chamber for 2 h unless otherwise stated. Five ul were taken from each well and added as a drop onto a blood agar plate and incubated over night at 37° C. In some experiments more thorough viable counts were performed and the killing was expressed as remaining colony forming units in relation to the inoculum. The lower limit for detection of microorganisms was 200 CFU/ml.
L. gasseri survived better in the assay system than did L. jensenii. Undiluted lactate (5%) affected the survival of Lactobacillus.

Setting [2] is: in the absence or presence of LF.

Structures can show the parent of a compound that is named as a salt.

With `CC(O)C(=O)O` (stereo not drawn) [lactate, α-hydroxipropionic acid], the “reduction of Candida” value in the experiment on C. albicans (ATCC 64549) (lactate 1% without LF, 2 h) was 65%. In addition, the antifungal activity result in the experiment on C. albicans (ATCC 64549) (undiluted lactate) was “an antifungal activity was observed”. In the experiment with C. albicans (ATCC 64549) (undiluted lactate (5%), 2 h), the “survival of C. albicans” value is “no yeast cells survived”. Moreover, in the experiment on C. albicans (ATCC 64549) (undiluted lactate (5%), without LF or HL2), the “antimicrobial activity against C. albicans” value was “complete”. In addition, the “antibacterial activity towards E. coli” value in the experiment on E. coli 06 (setting [2]) is on record as “good”. Besides, the “E. coli killing, growth grade in droplet assay” value with E. coli 06 (lactate 0.2% alone (HLF 0 ug/ml), 2 h incubation) is “++”. Also, the “E. coli killing, percentage of bacteria remaining in relation to the inoculum” value was 5% in the experiment with E. coli 06 (lactate 0.2% alone (HLF 0 ug/ml), 5 h incubation); 6% in the experiment with E. coli 06 (lactate 1% alone (HLF 0 ug/ml), 5 h incubation); 0 (0 means that no CFU were found in triplicate samples of 5 ul (>99.95 killed of the inoculum)) in the experiment with E. coli 06 (lactate 5% alone (HLF 0 ug/ml), 2 h incubation); 0 (0 means that no CFU were found in triplicate samples of 5 ul (>99.95 killed of the inoculum)) in the experiment on E. coli 06 (lactate 5% alone (HLF 0 ug/ml), 5 h incubation). In the experiment on E. coli 06 (undiluted lactate (5%), 2 h), the “survival of E. coli” value is reported as “no bacteria survived”. In addition, the “antimicrobial activity against E. coli” value with E. coli 06 (undiluted lactate, without LF) is given as “complete”. Besides, the “antibacterial activity towards S. aureus” value in experiment [1] (setting [2]) is “good”. The “S. aureus killing, percentage of bacteria remaining in relation to the inoculum” value is 0 (0 = no bacteria in triplicate samples of 5 ul (>99.95 killed of the inoculum).) in experiment [1] (lactate 0.2% alone (HLF t0 ug/ml), 2 h incubation); 0 (0 = no bacteria in triplicate samples of 5 ul (>99.95 killed of the inoculum).) in experiment [1] (lactate 0.2% alone (HLF t0 ug/ml), 5 h incubation); 0 (0 = no bacteria in triplicate samples of 5 ul (>99.95 killed of the inoculum).) in experiment [1] (lactate 1% alone (HLF t0 ug/ml), 2 h incubation); 0 (0 = no bacteria in triplicate samples of 5 ul (>99.95 killed of the inoculum).) in experiment [1] (lactate 1% alone (HLF t0 ug/ml), 5 h incubation); 0 (0 = no bacteria in triplicate samples of 5 ul (>99.95 killed of the inoculum).) in experiment [1] (lactate 5% alone (HLF t0 ug/ml), 2 h incubation); 0 (0 = no bacteria in triplicate samples of 5 ul (>99.95 killed of the inoculum).) in experiment [1] (lactate 5% alone (HLF t0 ug/ml), 5 h incubation). Moreover, the “antimicrobial activity against S. aureus” value in experiment [1] (undiluted lactate, without LF) is “complete”. Moreover, the “survival of L. jensenii” value with L. jensenii is given as “did not survive”.

Consider `Cl` [HCl, hydrogen chloride, reference compound], for which, in the experiment on C. albicans (ATCC 64549) (HCl giving the same pH as lactate, undiluted, with LF), the “Candidacidal activity with lactate replaced by HCl” value is given as “reduced Candidacidal activity”.
